Source: patent publication US12593847B2, “Formulations” (SYNGENTA CROP PROTECTION AG, priority 2020, dated 2026)
Where two headings read alike, the source gives them in different places.

Tests used:
[1] = Example 2: storage stability of standard formulation (pH 6.05), one year at 20-25° C.; assay type: physicochemical; conditions: Example 2 formulation; for Concentration at t = 0: pH 6.05, before storage; for % loss: pH 6.05, one year at 20-25° C.; for Concentration at t = 1 year and 20-25 ° C.: pH 6.05, stored one year at 20-25° C.
Experimental: Another standard formulation containing the follow active ingredients was created as follows:
The formulation was stored for one year at 20-25° C. The pH of 6.05 providing excellent chemical stability for picarbutrazox as well at the other active ingredients.

[2] = Example 8: picarbutrazox and thiamethoxam stability relative to pH, 1 month at 50° C.; assay type: physicochemical; conditions: for Change in thiamethoxam concentration after storage for 1 month at 50° C.: Example 8 formulation (20.8% w/w thiamethoxam); for Change in picarbutrazox concentration after storage for 1 month at 50° C.: Example 8 formulation (0.42% w/w picarbutrazox)
Excerpt: Four standard formulations containing the follow active ingredients were created. The standard formulations contained customary formulation components and were then pH adjusted via the addition of either Sodium Hydroxide (NaOH) or Phosphoric Acid (H3PO4) to obtain a range of pH's.

[3] = cited from earlier work; for time for degradation in water of at least 50%: pH 9
[4] = Example 7: picarbutrazox and thiamethoxam stability relative to pH, 54° C. for 2 weeks; assay type: physicochemical; conditions: for Change in thiamethoxam concentration after storage at 54° C. for 2 weeks: Example 7 formulation (20.8% w/w thiamethoxam); for Change in picarbutrazox concentration after storage at 54° C. for 2 weeks: Example 7 formulation (0.42% w/w picarbutrazox)
Excerpt: Two standard formulations containing the follow active ingredients were created. The standard formulations contained customary formulation components and were then pH adjusted via the addition of either Sodium Hydroxide (NaOH) or Phosphoric Acid (H3PO4) to obtain a range of pH's.

[5] = pH 7; cited from earlier work
[6] = Example 10: storage stability of mixtures of 36% w/w and 0.8% w/w PCBX formulations, 2 weeks at 54 C.; assay type: physicochemical; conditions: for Actual Measured % w/w PCBX in the combined mixture: before storage
Experimental: A standard formulation was prepared which contained picarbutrazox at 36% w/w concentration. This was then mixed in differing ratios with a standard formulation which contained picarbutrazox at 0.8% w/w concentration. The mixtures were stored for 2 weeks at 54 C.

[7] = Example 9: storage stability of 43.3% w/w picarbutrazox formulation; assay type: physicochemical; conditions: Example 9 formulation, picarbutrazox only AI at 43.3% w/w, Initial pH 7.2
Experimental: A standard formulation was prepared which contained picarbutrazox as the only Al at 43.3% w/w concentration. The initial pH was pH 7.2.

[8] = 0% of 36% w/w PCBX formulation + 100% of 0.8% w/w PCBX formulation
[9] = mixture 30% of 36% w/w PCBX formulation + 70% of 0.8% w/w PCBX formulation
[10] = mixture 60% of 36% w/w PCBX formulation + 40% of 0.8% w/w PCBX formulation
[11] = mixture 90% of 36% w/w PCBX formulation + 10% of 0.8% w/w PCBX formulation

Structure (SMILES): N#Cc1c[nH]cc1-c1cccc2c1OC(F)(F)O2 [Fludioxonil]
- Concentration at t = 0 [1]: 0.955 % w/w
- % loss [1]: 1%
- Concentration at t = 1 year and 20-25 ° C. [1]: 0.944 % w/w

Structure (SMILES): COCC(=O)N(c1c(C)cccc1C)[C@H](C)C(=O)OC [Mefenoxam]
- Concentration at t = 0 [1]: 5.78 % w/w
- % loss [1]: 0%
- Concentration at t = 1 year and 20-25 ° C. [1]: 5.77 % w/w

Structure (SMILES): Cn1cc(C(=O)Nc2ccccc2C2CC2C2CC2)c(C(F)F)n1 (centres unmarked) [Sedaxane]
- Concentration at t = 0 [1]: 0.974 % w/w
- % loss [1]: 0%
- Concentration at t = 1 year and 20-25 ° C. [1]: 0.970 % w/w

Structure (SMILES): CN1COCN(Cc2cnc(Cl)s2)/C1=N\[N+](=O)[O-] [Thiamethoxam]
- Concentration at t = 0 [1]: 19.5 % w/w
- % loss [1]: 2%
- Concentration at t = 1 year and 20-25 ° C. [1]: 19.1 % w/w
- Change in thiamethoxam concentration after storage for 1 month at 50° C. ([2]; Initial pH 5.7): −1%
- Change in thiamethoxam concentration after storage for 1 month at 50° C. ([2]; Initial pH 6.0): −1%
- Change in thiamethoxam concentration after storage for 1 month at 50° C. ([2]; Initial pH 7.2): −5%
- Change in thiamethoxam concentration after storage for 1 month at 50° C. ([2]; Initial pH 8.0): −7%
- Hydrolysis ([3]; pH 1, 5, 7 (25° C.)): stable
- Hydrolysis DT50 ([3]; pH 9, 25° C.): 7.3 to 15.6 days
- Change in thiamethoxam concentration after storage at 54° C. for 2 weeks ([4]; Initial pH 7.2): −1%
- Change in thiamethoxam concentration after storage at 54° C. for 2 weeks ([4]; Initial pH 8.0): −3%

Structure (SMILES): CNC(=O)c1cc(Cl)cc(C)c1NC(=O)c1cc(Br)nn1-c1ncccc1Cl [chlorantraniliprole]
- Hydrolysis ([3]; pH 4-7 (25° C.)): stable
- Hydrolysis DT50 ([3]; pH 9, 25° C.): 10 days
- time for degradation in water of at least 50% [3]: less than 30 days
- Aqueous photolysis DT50 [5]: (25° C.). Aqueous photolysis DT50 0.37 d (pH 7).

Structure (SMILES): CNC(=O)c1cc(C#N)cc(C)c1NC(=O)c1cc(Br)nn1-c1ncccc1Cl [cyantraniliprole]
- Hydrolysis DT50 ([3]; pH 4, 20° C.): 261 days
- Hydrolysis DT50 ([3]; pH 7, 20° C.): 61 days
- Hydrolysis DT50 ([3]; pH 9, 20° C.): 1.8 days
- time for degradation in water of at least 50% [3]: less than 30 days

Structure (SMILES): Cn1nnnc1/C(=N\OCc1cccc(NC(=O)OC(C)(C)C)n1)c1ccccc1 [picarbutrazox, 1,1-Dimethylethyl N-(6-((((Z)-((1-methyl-1H-tetrazol-5-yl)phenylmethylene)amino)oxy)methyl)-2-pyridinyl)carbamate]
- Concentration at t = 0 [1]: 0.365 % w/w
- % loss [1]: 0%
- Concentration at t = 1 year and 20-25 ° C. [1]: 0.367 % w/w
- Change in PCBX concentration after storage for 2 weeks at 54 C. [6, 8]: 11%
- Actual Measured % w/w PCBX in the combined mixture [6, 8]: 0.85% w/w
- Change in PCBX concentration after storage for 2 weeks at 54 C. [6, 9]: 0%
- Actual Measured % w/w PCBX in the combined mixture [6, 9]: 11.4% w/w
- Change in PCBX concentration after storage for 2 weeks at 54 C. [6, 10]: 0%
- Actual Measured % w/w PCBX in the combined mixture [6, 10]: 21.8% w/w
- Change in PCBX concentration after storage for 2 weeks at 54 C. [6, 11]: 0%
- Actual Measured % w/w PCBX in the combined mixture [6, 11]: 32.6% w/w
- Change in picarbutrazox concentration after storage for 1 month at 50° C. ([2]; Initial pH 5.7): −16%
- Change in picarbutrazox concentration after storage for 1 month at 50° C. ([2]; Initial pH 6.0): −16%
- Change in picarbutrazox concentration after storage for 1 month at 50° C. ([2]; Initial pH 7.2): −13%
- Change in picarbutrazox concentration after storage for 1 month at 50° C. ([2]; Initial pH 8.0): −5%
- Change in picarbutrazox concentration after storage at 54° C. for 2 weeks ([4]; Initial pH 7.2): −10%
- Change in picarbutrazox concentration after storage at 54° C. for 2 weeks ([4]; Initial pH 8.0): −6%
- Change in picarbutrazox concentration after storage for 1 month at 50° C. [7]: −1%
- Change in picarbutrazox concentration after storage for 2 weeks at 54° C. [7]: −2%
